{"source": "patent US10004786B2", "about": "(Zealand Pharma A/S, priority 2009, dated 2018)", "format_in_all_cases": "in vivo", "key": {"[1]": {"assay": "Pharmacokinetic screening in mouse plasma after subcutaneous administration", "settings": "sc, mice, 100 nmol/kg s.c., * = only two time points used for calculation", "procedure": "Mice were dosed 100 nmol/kg subcutaneously (s.c.). The mice were sacrificed and the blood collected at the following time points; 0.5, 2, 4, 6, 16 and 24 h. Plasma samples were analyzed using protein precipitation, followed by solid phase extraction (SPE) and liquid chromatography mass spectrometry (LC-MS).\nPharmacokinetic profiles were determined for various acylated compounds."}, "[2]": {"assay": "HbA1c in db/db mice after 28 days", "settings": "4 weeks, 12.7 nmol/kg, P=0.03 Students t-test", "procedure": "Male mice (Long term high fat fed C57Bl/6J, short term high fat fed C57Bl/6J and db/db) were acclimatized with free access to food and water. They were housed in groups of 5-6 in a light-, temperature-, and humidity-controlled room (12-hour light:12-hour dark cycle, lights On/Off at 2000/0800 hour; 24° C.; 50% relative humidity).\nThe animals were injected s.c. with 100 μl vehicle (once a day) for a period of three days to acclimatize the animals to handling and injections. Blood samples were taken from the eye or from the tip of the tail. The animals were randomized before treatment.\nMice were treated twice daily s.c. with GluGLP-1 agonist or vehicle (injection volume=2.5 ml/kg). Throughout the study, body weights were recorded daily and used to administer the body weight-corrected doses of peptide. Peptide solutions were prepared fresh immediately before dosing. […]\nThe HbA1c determination is based on Turbidimetric INhibition ImmunoAssay (TINIA) in which HbA1c in the sample reacts with anti-HbA1c to form soluble antigen-antibody complexes. Additions of polyhaptens react with excess anti-HbA1c antibodies to form an insoluble antibody-polyhapten complex, which can be measured turbidimetrically. Liberated hemoglobin in the hemolyzed sample is converted to a derivative having a characteristic absorption spectrum, which is measured bichromatically during the preincubation phases. […]"}, "[3]": {"assay": "Total cholesterol and HDL/LDL ratio in Diet Induced Obese (DIO) mice", "settings": "4 weeks, 12.7 nmol/kg, plasma, P<0.0001", "procedure": "The assay is an enzymatic colorimetric method. In the presence of magnesium ions, dextran sulfate selectively forms water-soluble complexes with LDL, VLDLA and chylomicrons, which are resistant to PEG-modified enzymes. The HDL cholesterol is determined enzymatically by cholesterol esterase and cholesterol oxidase coupled with PEG to the amino groups. Cholesterol esters are broken down quantitatively to free cholesterol and fatty acids. HDL cholesterol is enzymatically oxidized to choles-4-en-3-one and H2O2, and the formed H2O2 is measured colorimetrically (Cobas®; Application note HDLC3).\nThe direct determination of LDL takes advantage of the selective micellary solubilization of LDL by a nonionic detergent and the interaction of a sugar compound and lipoproteins (VLDL and chylomicrons). The combination of a sugar compound with detergent enables the selective determination of LDL in plasma. […] Free cholesterol is then oxidized and the formed H2O2 is measured colorimetrically (Application note LDL_C, Cobas®).\nDiet Induced Obese (DIO) mice were treated with vehicle or compound 7 for 4 weeks and plasma prepared from the collected blood samples. The total cholesterol, LDL and HDL were determined in each plasma sample (Cobas® application notes: CHOL2, HDLC3 and LDL_C) and results are shown in FIGS. 5 and 6."}, "[4]": {"assay": "Body weight gain in high fat fed C57BL/6J mice (10 days)", "settings": "5 nmol/kg b.i.d. s.c., short term high fat-fed C57BL/6J mice", "method_in_brief": "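Male C57Bl/6J mice fed high fat diet for 4 weeks from 6 weeks of age, vehicle-acclimatized 3 days, then dosed b.i.d. s.c. with peptide at 0.5 and 5 nmol/kg or vehicle. Doses corrected to daily body weights, which were recorded throughout.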"}, "[5]": {"assay": "Oral glucose tolerance 2, 4, 6, 8, 10 and 12 h after dosing in high fat fed mice", "settings": "10 nmol/kg s.c. single dose, high fat fed C57BL/6J mice", "procedure": "C57Bl/6J male mice, 6 weeks old, were acclimatized to their new environment with free access to a high fat diet (D12492, Research Diet Inc., New Brunswick, USA) and water. The animals were injected s.c. with vehicle for a period of three days to acclimatize the animals to handling and injections. Blood samples were taken from the tip of the tail and blood glucose measured. The blood glucose (mM) concentration was analyzed by the immobilized glucose oxidase method using a drop of blood (<5 μl; Contour Autoanalyser, Bayer, Denmark) following the manufacturer's manual. After 4 weeks on the high fat diet the animals were weighed and the body weight was used to administer a body weight-corrected dose of peptide. An oral glucose tolerance test (OGTT) was performed after subjecting the animals to 4 hours of fasting. At 2, 4, 6, 8, 10 and 12 hours after single peptide or vehicle dosing an initial blood sample were taken (t=−0 min). Immediately thereafter, an oral dose of glucose (1 g/kg) was given and the animals were returned to their home cages (t=0). BG levels were measured at t=15 min, t=30 min, t=60 min and t=90 min. […]\nAn oral glucose tolerance test (OGTT) was performed after subjecting the animals to 4 hours of fasting. […] BG levels were measured at t=15 min, t=30 min, t=60 min and t=90 min. […]"}, "[6]": {"assay": "Food intake in young lean and old obese C57BL/6J mice", "settings": "s.c. at t=0 h and t=12 h, p<0.05 versus vehicle", "procedure": "C57BL/6J mice were on a high fat diet for 11 days and C57BL/6J mice were on a high fat diet for 52 weeks.\n3 days before study, the mice were transferred to individual cages and weighed. 4 days before study, they were acclimatized to handling and treatment by daily s.c. injections. On the day before the experiment food was removed at 20:00. […] Immediately after treatment (t=0), pre-weighed food were introduced to the mice and the cumulative food intake was measured by weighing the remaining food after t=1, 2, 4, 8, 12 and 24 hours. After weighing the food and the animals at t=24 h, the mice were sacrificed by cervical dislocation.\nImmediately after treatment (t=0), pre-weighed food were introduced to the mice and the cumulative food intake was measured by weighing the remaining food after t=1, 2, 4, 8, 12 and 24 hours."}}}
{"smiles": "CCCCCCCCCCCCCCCC(=O)N[C@@H](CCC(=O)NCCCC[C@H](NC(=O)[C@H](CO)NC(=O)[C@H](CC(=O)O)NC(=O)[C@H](CC(C)C)NC(=O)[C@H](Cc1ccc(O)cc1)NC(=O)[C@H](CCCCN)NC(=O)[C@H](CO)NC(=O)[C@H](Cc1ccc(O)cc1)NC(=O)[C@H](CC(=O)O)NC(=O)[C@H](CO)NC(=O)[C@@H](NC(=O)[C@H](Cc1ccccc1)NC(=O)[C@@H](NC(=O)CNC(=O)[C@H](CCC(N)=O)NC(=O)C(C)(C)NC(=O)[C@@H](N)Cc1c[nH]cn1)[C@@H](C)O)[C@@H](C)O)C(=O)N[C@@H](C)C(=O)N[C@@H](C)C(=O)N[C@@H](Cc1c[nH]cn1)C(=O)N[C@@H](CC(=O)O)C(=O)N[C@@H](Cc1ccccc1)C(=O)N[C@H](C(=O)N[C@@H](CCC(=O)O)C(=O)N[C@@H](Cc1c[nH]c2ccccc12)C(=O)N[C@@H](CC(C)C)C(=O)N[C@@H](CC(C)C)C(=O)N[C@@H](CO)C(=O)N[C@@H](C)C(N)=O)C(C)C)C(=O)O", "note": "[Compound 7]", "values": [{"measurement": "half-life", "setting": "[1]", "value": 204, "unit": "min"}, {"measurement": "ΔHbA1c (%) compared to vehicle", "setting": "[2]", "value": "decreased ΔHbA1c (%) significantly"}, {"measurement": "HDL/LDL-ratio", "setting": "[3]", "value": "increased the HDL/LDL-ratio"}, {"measurement": "total cholesterol concentrations", "setting": "[3]", "value": "decreased total cholesterol concentrations"}, {"measurement": "body weight gain, high dose", "setting": "[4]", "value": "significantly decreased body weight gain at the high dose"}, {"measurement": "glucose tolerance (AUC during oral glucose tolerance test)", "setting": "[5]", "value": "significantly improves glucose tolerance"}, {"measurement": "food intake, old obese mice", "setting": "[6]; high fat diet for 52 weeks", "value": "reduced food intake during the 0-2, 0-4, 0-8, 0-12 and 0-24 time periods"}, {"measurement": "food intake, young lean mice", "setting": "[6]; high fat diet for 11 days", "value": "reduced food intake during the 0-4, 0-8, 0-12 and 0-24 time periods"}]}
